Assay results: patent US12077503B2, “Substituted cyclic amides and their use as herbicides” (FMC CORPORATION, priority 2015, dated 2024)
Read-outs that look alike come from different tables or passages of the source.

Tests used:
Assay in all cases: Test A preemergence
Assay type in all cases: in vivo
[1] = tested on: Kochia (Kochia scoparia); details: Bassia scoparia, pre-emergence, 240 h; for pest or weed control at 125 g/ha: 125 g ai/ha; for pest or weed control at 500 g/ha: 500 g ai/ha
Procedure, shortened: (§1)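 Compounds were formulated in a non-phytotoxic solvent mixture with surfactant and applied as a preemergence directed soil spray after seeding, or sprayed postemergence over plants 2 to 10 cm tall at the one- to two-leaf stage. Evaluation after about 10 d compared treated with untreated controls, using a scale from 0 (no effect) to 100 (complete control).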

[2] = tested on: barnyardgrass (Echinochloa crus-galli); details: Echinochloa crus-galli, pre-emergence, 240 h; for pest or weed control at 125 g/ha: 125 g ai/ha; for pest or weed control at 500 g/ha: 500 g ai/ha
Procedure, shortened: as §1

[3] = tested on: giant foxtail (Setaria faberii); details: Setaria faberi, pre-emergence, 240 h; for pest or weed control at 125 g/ha: 125 g ai/ha; for pest or weed control at 500 g/ha: 500 g ai/ha
Procedure, shortened: as §1

[4] = tested on: pigweed (Amaranthus retroflexus); details: Amaranthus retroflexus, pre-emergence, 240 h; for pest or weed control at 125 g/ha: 125 g ai/ha; for pest or weed control at 500 g/ha: 500 g ai/ha
[5] = tested on: ragweed (common ragweed, Ambrosia elatior); details: Ambrosia artemisiifolia, pre-emergence, 240 h; for pest or weed control at 125 g/ha: 125 g ai/ha; for pest or weed control at 500 g/ha: 500 g ai/ha
Procedure, shortened: as §1

[6] = tested on: ryegrass, Italian (Italian ryegrass, Lolium multiflorum); details: Lolium multiflorum, pre-emergence, 240 h; for pest or weed control at 125 g/ha: 125 g ai/ha; for pest or weed control at 500 g/ha: 500 g ai/ha
Procedure, shortened: as §1

[7] = preemergence, visual rating after approx. 10 d, 0 to 100 scale where 0 is no effect and 100 is complete control, read-out: Plant response rating, Kochia
[8] = preemergence, 0 to 100 scale, 0 = no effect, 100 = complete control, read-out: Plant response rating, Kochia
[9] = preemergence, visual rating after approx. 10 d, 0 to 100 scale where 0 is no effect and 100 is complete control, read-out: Plant response rating, Barnyardgrass
[10] = preemergence, 0 to 100 scale, 0 = no effect, 100 = complete control, read-out: Plant response rating, Barnyardgrass
[11] = preemergence, visual rating after approx. 10 d, 0 to 100 scale where 0 is no effect and 100 is complete control, read-out: Plant response rating, Foxtail, Giant
[12] = preemergence, 0 to 100 scale, 0 = no effect, 100 = complete control, read-out: Plant response rating, Foxtail, Giant
[13] = preemergence, visual rating after approx. 10 d, 0 to 100 scale where 0 is no effect and 100 is complete control, read-out: Plant response rating, Pigweed
[14] = preemergence, 0 to 100 scale, 0 = no effect, 100 = complete control, read-out: Plant response rating, Pigweed
[15] = preemergence, visual rating after approx. 10 d, 0 to 100 scale where 0 is no effect and 100 is complete control, read-out: Plant response rating, Ragweed
[16] = preemergence, 0 to 100 scale, 0 = no effect, 100 = complete control, read-out: Plant response rating, Ragweed
[17] = preemergence, visual rating after approx. 10 d, 0 to 100 scale where 0 is no effect and 100 is complete control, read-out: Plant response rating, Ryegrass, Italian
[18] = preemergence, 0 to 100 scale, 0 = no effect, 100 = complete control, read-out: Plant response rating, Ryegrass, Italian
[19] = preemergence, 0 to 100 scale where 0 is no effect and 100 is complete control, read-out: Kochia plant response rating
[20] = Preemergence, 0 to 100 scale (0 no effect, 100 complete control), read-out: Plant response rating, Kochia
[21] = preemergence, 0 to 100 scale where 0 is no effect and 100 is complete control, read-out: Barnyardgrass plant response rating
[22] = Preemergence, 0 to 100 scale (0 no effect, 100 complete control), read-out: Plant response rating, Barnyardgrass
[23] = preemergence, 0 to 100 scale where 0 is no effect and 100 is complete control, read-out: Foxtail, Giant plant response rating
[24] = Preemergence, 0 to 100 scale (0 no effect, 100 complete control), read-out: Plant response rating, Foxtail, Giant
[25] = preemergence, 0 to 100 scale where 0 is no effect and 100 is complete control, read-out: Pigweed plant response rating
[26] = Preemergence, 0 to 100 scale (0 no effect, 100 complete control), read-out: Plant response rating, Pigweed
[27] = preemergence, 0 to 100 scale where 0 is no effect and 100 is complete control, read-out: Ragweed plant response rating
[28] = Preemergence, 0 to 100 scale (0 no effect, 100 complete control), read-out: Plant response rating, Ryegrass, Italian

SMILES | pest or weed control at 125 g/ha [1, 7] [%] | pest or weed control at 500 g/ha [1, 8] [%] | pest or weed control at 125 g/ha [2, 9] [%] | pest or weed control at 500 g/ha [2, 10] [%] | pest or weed control at 125 g/ha [3, 11] [%] | pest or weed control at 500 g/ha [3, 12] [%] | pest or weed control at 125 g/ha [4, 13] [%] | pest or weed control at 500 g/ha [4, 14] [%] | pest or weed control at 125 g/ha [5, 15] [%] | pest or weed control at 500 g/ha [5, 16] [%] | pest or weed control at 125 g/ha [6, 17] [%] | pest or weed control at 500 g/ha [6, 18] [%] | pest or weed control at 500 g/ha [1, 19] [%] | pest or weed control at 500 g/ha [2, 21] [%] | pest or weed control at 500 g/ha [3, 23] [%] | pest or weed control at 500 g/ha [4, 25] [%] | pest or weed control at 500 g/ha [5, 27] [%] | further results
Cc1cc([C@H]2CNC(=O)[C@@H]2C(=O)Nc2ccc(F)cc2F)ccc1Br [Compound 725] | 0 | 50 | 90 | 90 | 90 | 90 | 0 | 0 | 0 | 0 | 0 | 20 |  |  |  |  |  | 
CN1C[C@H](c2cccc([N+](=O)[O-])c2)[C@@H](C(=O)Nc2cccc(F)c2F)C1=O (racemic) [Compound 776] | 50 |  | 90 |  | 90 |  | 30 |  | 30 |  | 20 |  |  |  |  |  |  | pest or weed control at 500 g/ha ([1]; Preemergence, visual injury vs untreated controls after approximately 10 d, read-out: Kochia plant response rating (0 to 100 scale where 0 is no effect and 100 is complete control)): 60%; pest or weed control at 500 g/ha ([2]; Preemergence, visual injury vs untreated controls after approximately 10 d, read-out: Barnyardgrass plant response rating (0 to 100 scale where 0 is no effect and 100 is complete control)): 90%; pest or weed control at 500 g/ha ([3]; Preemergence, visual injury vs untreated controls after approximately 10 d, read-out: Foxtail, Giant plant response rating (0 to 100 scale where 0 is no effect and 100 is complete control)): 100%; pest or weed control at 500 g/ha ([4]; Preemergence, visual injury vs untreated controls after approximately 10 d, read-out: Pigweed plant response rating (0 to 100 scale where 0 is no effect and 100 is complete control)): 60%; pest or weed control at 500 g/ha ([5]; Preemergence, visual injury vs untreated controls after approximately 10 d, read-out: Ragweed plant response rating (0 to 100 scale where 0 is no effect and 100 is complete control)): 80%; pest or weed control at 500 g/ha ([6]; Preemergence, visual injury vs untreated controls after approximately 10 d, read-out: Ryegrass, Italian plant response rating (0 to 100 scale where 0 is no effect and 100 is complete control)): 50%
CSc1ccccc1NC(=O)[C@H]1C(=O)N(C)C[C@@H]1c1cc(F)cc(F)c1 [Compound 738] | 0 | 70 | 90 | 100 | 90 | 100 | 0 | 50 | 0 | 70 | 0 | 20 |  |  |  |  |  | 
CS(=O)(=O)c1ccccc1NC(=O)[C@H]1C(=O)NC[C@@H]1c1ccc2c(c1)CCO2 [Compound 1320] |  |  |  |  |  |  |  |  |  |  |  |  | 60 | 60 | 80 | 0 | 0 | pest or weed control at 125 g/ha [1, 20]: 0%; pest or weed control at 125 g/ha [2, 22]: 0%; pest or weed control at 125 g/ha [3, 24]: 0%; pest or weed control at 125 g/ha [4, 26]: 0%; pest or weed control at 125 g/ha ([5]; Preemergence, 0 to 100 scale (0 no effect, 100 complete control), read-out: Plant response rating, Ragweed): 0%; pest or weed control at 125 g/ha [6, 28]: 0%
CSc1ccccc1NC(=O)[C@H]1C(=O)NC[C@@H]1c1ccc2c(c1)OCO2 [Compound 1257] |  |  |  |  |  |  |  |  |  |  |  |  | 0 | 0 | 0 | 0 | 0 | pest or weed control at 125 g/ha ([1]; preemergence, visual injury rating, 0 to 100 scale where 0 is no effect and 100 is complete control, approximately 10 d, read-out: Kochia plant response rating): 0%; pest or weed control at 125 g/ha ([2]; preemergence, visual injury rating, 0 to 100 scale where 0 is no effect and 100 is complete control, approximately 10 d, read-out: Barnyardgrass plant response rating): 0%; pest or weed control at 125 g/ha ([3]; preemergence, visual injury rating, 0 to 100 scale where 0 is no effect and 100 is complete control, approximately 10 d, read-out: Foxtail, Giant plant response rating): 0%; pest or weed control at 125 g/ha ([4]; preemergence, visual injury rating, 0 to 100 scale where 0 is no effect and 100 is complete control, approximately 10 d, read-out: Pigweed plant response rating): 0%; pest or weed control at 125 g/ha ([5]; preemergence, visual injury rating, 0 to 100 scale where 0 is no effect and 100 is complete control, approximately 10 d, read-out: Ragweed plant response rating): 0%; pest or weed control at 125 g/ha ([6]; preemergence, visual injury rating, 0 to 100 scale where 0 is no effect and 100 is complete control, approximately 10 d, read-out: Ryegrass, Italian plant response rating): 0%; pest or weed control at 500 g/ha ([6]; preemergence, 0 to 100 scale where 0 is no effect and 100 is complete control, read-out: Ryegrass, Italian plant response rating): 0%
COc1cc([C@H]2CN(C)C(=O)[C@@H]2C(=O)Nc2ccccc2F)ccc1C(F)(F)F [Compound 768] | 60 | 70 | 90 | 90 | 90 | 90 | 0 | 20 | 0 | 0 | 0 |  |  |  |  |  |  | 
Cc1cc([C@H]2CN(C)C(=O)[C@@H]2C(=O)Nc2cccc(F)c2C)ccc1F [Compound 1311] |  |  |  |  |  |  |  |  |  |  |  |  | 100 | 100 | 100 | 20 | 90 | pest or weed control at 125 g/ha [1, 20]: 70%; pest or weed control at 125 g/ha [2, 22]: 100%; pest or weed control at 125 g/ha [3, 24]: 100%; pest or weed control at 125 g/ha [4, 26]: 0%; pest or weed control at 125 g/ha [6, 28]: 70%
CN1C[C@H](c2ccc3c(c2)CCC3)[C@@H](C(=O)Nc2ccccc2S(C)(=O)=O)C1=O [Compound 744] | 60 | 90 | 20 | 90 | 90 | 90 | 20 | 50 | 0 | 50 | 0 | 80 |  |  |  |  |  | 
